Where a name gives a salt, the structure may show the parent alone.
How the values were obtained:
[1] = target: T1, SYK (Homo sapiens, UniProt P43405); assay: biochemical; conditions: SYK lysate from anti-IgM stimulated Ramos B cells, Y7 Sox peptide 5 μM, ATP 35 μM; read-out: average plC50
T1 construct: The cell pellet was then lysed in ice-cold lysis buffer containing 1% triton-x-100; endogenous in cells; host or cells: Ramos B cells (human Burkitt's lymphoma, clone 296.4C10, ATCC), stimulated with anti-IgM antibody, clarified Triton X-100 lysate
Procedure: 1. Basic SYK Enzyme Activity
3 μl of SYK lysate diluted 16-fold in assay buffer (20 mM TRIS pH 7.4, 0.01% BSA, 0.1% Pluronic F-68) was added to wells containing 0.1 μl of various concentrations of compound or DMSO vehicle (1.7% final) in a Greiner low volume 384 well black plate. […]
i. Preparation of Ramos Cell Lysates
Cells were grown in Corning Cellstacks (6360 cm^2) in 1 litre volume and viability and cell density were monitored daily. Cells were maintained at <1.5×10e6/ml and >92% viability ii. Stimulation of Ramos Cells with Anti-IgM Ab to Produce Syk & Preparation of Lysates Cells were stimulated at 20×10^6 cells/ml using 15 ug/ml (final concentration) anti-IgM antibody. Following harvest (as described above), a total of 4×10^9 cells were resuspended in 180 mls pre-warmed (37° C.) DPBS in a Corning 500 ml centrifuge bottle. 20 mls anti-IgM antibody at 150 ug/ml were added to each 500 ml centrifuge bottle. (working stock made up in DPBS pre-warmed to 37° C.). Cells were incubated for exactly 5 minutes at 37° C. following the addition of anti IgM antibody. Following 5 minutes stimulation, 300 mls ice-cold DPBS were added to each bottle to stop the stimulation (temperature drops to ˜12 deg C.) then cells were centrifuged at 2000 rpm (Sorvall Legend RT+centrifuge—pre-chilled to 4 deg C.). Cells were washed by resuspension in ice-cold DPBS and centrifugation as above. The cell pellet was then lysed in ice-cold lysis buffer containing 1% triton-x-100 at a ratio of 150 ul/1×10^7 cells (i.e. […] lysis buffer). Following the addition of lysis buffer, the cells were pipetted up & down & kept on ice for 15 minutes. The clarified lysate was then obtained by centrifugation (Sorvall Evolution RC (SLA-1500 rotor, ˜20,000 g (˜14,500 rpm), 45 min, 4° C.).
Lysate was aliquoted, snap-frozen on dry-ice & stored at −80° C. prior to assay.

[2] = cited from earlier work
[3] = system: B lymphoma (BKS-2); conditions: murine BKS-2 B lymphoma model; cited from earlier work

IC50 [1] [µM] | SMILES | other results
≤ 10 | CC1CCC(CNc2nc(-c3cnn(C)c3)cc3nccnc23)CN1 (single isomer, unassigned) [Example 176, 7-(1-methyl-1H-pyrazol-4-yl)-N-[(6-methylpiperidin-3-yl)methyl]pyrido[3,4-b]pyrazin-5-amine hydrochloride, single unknown enantiomer] | –
≤ 10 | O=C1CN(c2cc3nccnc3c(NC[C@H]3CCCNC3)n2)CCN1 [Example 30, 4-(5-{[(3S)-3-piperidinylmethyl]amino}pyrido[3,4-b]pyrazin-7-yl)-2-piperazinone, hydrochloride] | –
≤ 10 | Cn1nccc1-c1cc2nccnc2c(NC[C@@H]2CNCCO2)n1 [Example 92, 7-(1-methyl-1H-pyrazol-5-yl)-N-[(2S)-morpholin-2-ylmethyl]pyrido[3,4-b]pyrazin-5-amine hydrochloride] | –
≤ 10 | COc1cncc(-c2cc3nccnc3c(NCC3(F)CCCNC3)n2)c1 (stereo not drawn) [Example 128, N-[(3-fluoropiperidin-3-yl)methyl]-7-(5-methoxypyridin-3-yl)pyrido[3,4-b]pyrazin-5-amine] | –
≤ 10 | Cc1noc(C)c1-c1cc2nccnc2c(NCC2(F)CCCNC2)n1 (stereo not drawn) [Example 157, 7-(dimethyl-1,2-oxazol-4-yl)-N-[(3-fluoropiperidin-3-yl)methyl]pyrido[3,4-b]pyrazin-5-amine hydrochloride] | –
≤ 10 | Fc1ccc(-c2cc3nccnc3c(NCC3(F)CCCNC3)n2)c(F)c1 (stereo not drawn) [Example 166, 7-(2,4-difluorophenyl)-N-[(3-fluoropiperidin-3-yl)methyl]pyrido[3,4-b]pyrazin-5-amine] | –
– | COc1cc(Nc2ncc(F)c(Nc3ccc4c(n3)N(COP(=O)(O)O)C(=O)C(C)(C)O4)n2)cc(OC)c1OC [Example R788, fostamatinib disodium] | therapeutic benefit ([2]; patients with DLBCL and CLL/SLL): therapeutic benefit; tolerability ([2]; patients with relapsed or refractory B-Cell NHL): well-tolerated
– | COc1cc(/C=C/C(=O)CC(=O)/C=C/c2ccc(O)c(OC)c2)ccc1O [curcumin] | tumour burden as measured by the total splenocyte number [3]: significant reduction

Source: US20140005188A1, “PYRIDO[3,4-B]PYRAZINE DERIVATIVES AS SYK INHIBITORS” (GLAXO GROUP LIMITED, priority 2011, published 2014)
